What was measured:
[1] = test system: MIA PaCa-2 (human pancreatic carcinoma cells); test: Anti-proliferative activity, MIA PaCa-2 cells (WST1 colorimetric test); assay type: cell-based; conditions: MIA PaCa-2, 96 h, 96 hours treatment, up to 10 μM, nested upper bounds, read-out: IC50 for proliferation of the MIA PaCa-2 cell lines
Procedure: (§1) ii) Characterisation of Anti-Proliferative Activity:
(§2) By way of an example, the effect of treating two human cell lines MIA PaCa-2 and DU 145 with the compounds of the examples described hereinbefore will be studied. The cell lines DU 145 (human prostate carcinoma cells) and MIA PaCa-2 (human pancreatic carcinoma cells) were obtained from the American Tissue Culture Collection (Rockville, Md., USA). A 96-well plate was inoculated on day 0 with cells in 80 μl of Dulbecco's modified Eagle's medium (Gibco-Brl, Cergy-Pontoise, France) with 10% heat-inactivated foetal calf serum (Gibco-Brl, Cergy-Pontoise, France), 50,000 units/l of penicillin and 50 mg/l of streptomycin (Gibco-Brl, Cergy-Pontoise, France) and 2 mM of glutamine (Gibco-Brl, Cergy-Pontoise, France). The cells were treated on day 1 for 96 hours with increasing concentrations of each test compound up to 10 μM. At the end of this period, cell proliferation is quantified by means of a colorimetric test based on cleavage of the tetrazolium salt WST1 by the mitochondrial dehydrogenases in the viable cells, resulting in formation of formazan (Boehringer Mannheim, Meylan, France). These tests are performed in duplicate with 8 determinations per concentration tested. For each test compound, the values within the linear part of the sigmoid curve were subjected to linear regression analysis and used to estimate the IC50 inhibitory concentration. The products are solubilised in dimethylsulfoxide (DMSO) at a concentration of 10^−2 M and used in culture with a final DMSO concentration of 0.1%.

[2] = biological target: T1, purified recombinant CDC25C enzyme (MBP-CDC25C protein) (Homo sapiens, UniProt P30307); test: Phosphatase activity of the purified recombinant CDC25C enzyme (OMFP dephosphorylation, fluorescence); assay type: biochemical; conditions: OMFP 500 μM, 4 hours at 30° C., three independent experiments; nested upper bounds; read-out: IC50 for the phosphatase activity of the purified recombinant CDC25-C enzyme
T1 construct: made in house
T1 sequence (P30307 1-473): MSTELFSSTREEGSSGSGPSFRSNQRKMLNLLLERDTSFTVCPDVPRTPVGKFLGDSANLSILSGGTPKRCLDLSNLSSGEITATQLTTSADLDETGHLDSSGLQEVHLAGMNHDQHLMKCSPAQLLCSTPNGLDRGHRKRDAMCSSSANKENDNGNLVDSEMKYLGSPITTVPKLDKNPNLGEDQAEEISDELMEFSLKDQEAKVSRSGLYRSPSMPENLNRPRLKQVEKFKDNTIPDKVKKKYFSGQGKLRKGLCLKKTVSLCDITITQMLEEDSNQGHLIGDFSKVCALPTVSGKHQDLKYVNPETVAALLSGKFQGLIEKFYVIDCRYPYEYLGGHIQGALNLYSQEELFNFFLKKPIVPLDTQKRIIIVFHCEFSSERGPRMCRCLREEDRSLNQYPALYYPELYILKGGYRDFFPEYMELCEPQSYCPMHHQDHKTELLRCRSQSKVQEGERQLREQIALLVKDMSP
Procedure: i) Determination of the Phosphatase Activity of the Purified Recombinant CDC25C Enzyme:
The phosphatase activity of the MBP-CDC25C protein is evaluated through its dephosphorylation of 3-O-methylfluorescein-phosphate (OMFP) to form 3-O-methylfluorescein (OMF), determining the fluorescence of the reaction product at 475 nm. This assay can be used to identify inhibitors of the recombinant CDC25 enzyme. The preparation of the MBP-CDC25C fusion protein is described in the PCT patent application published under the number WO 01/44467.
The reaction is performed in 384-well plates in a final volume of 50 μl. The MBP-CDC25C protein (prepared as described hereinabove) is stored in the following elution buffer: 20 mM Tris-HCl pH 7.4; 250 mM NaCl; 1 mM EDTA; 1 mM dithiothreitol (DTT); 10 mM maltose. It is diluted to a concentration of 60 μM in the following reaction buffer: 50 mM Tris-HCl pH 8.2; 50 mM NaCl; 1 mM DTT; 20% glycerol. The background noise is determined using with the buffer without adding the enzyme. The products are tested at decreasing concentrations from 40 μM. The reaction is initiated by the addition of OMFP solution to a final concentration of 500 μM (prepared immediately before use from a 12.5 mM stock solution in 100% DMSO (Sigma #M2629)). After 4 hours at 30° C. in a disposable 384-well plate, the fluorescence measured at OD 475 nm is read on a Victor^2 plate reader (EGG-Wallac). The concentration that produces 50% inhibition of the enzyme reaction is calculated from three independent experiments. Only the values that fall within the linear part of the sigmoid curve are used for the linear regression analysis.

[3] = test system: DU 145 (human prostate carcinoma cells); test: Anti-proliferative activity, DU 145 cells (WST1 colorimetric test); assay type: cell-based; conditions: DU-145, 96 h, 96 hours treatment, up to 10 μM, nested upper bounds, read-out: IC50 for proliferation of the DU 145 cell lines
Procedure: as §1, §2

SMILES	melting point [°C]	IC50 [1] [µM]	IC50 [2] [µM]	IC50 [3] [µM]
Cl.O=c1c(NCCNc2cc(N3CCCC3)nc(N3CCCC3)n2)c(Nc2ccc(Cl)cc2)c1=O	> 370			
O=P(O)(O)O.O=c1c(NCCNc2cc(N3CCCC3)nc(N3CCCC3)n2)c(Nc2ccc(Cl)cc2)c1=O [Example 9c, 3-[(4-chlorophenyl)amino]-4-({2-[(2,6-dipyrrolidin-1-ylpyrimidin-4-yl)amino]ethyl}amino)cyclobut-3-ene-1,2-dione phosphate]	275 to 278			
O=C(O)/C=C\C(=O)O.O=c1c(NCCNc2cc(N3CCCC3)nc(N3CCCC3)n2)c(Nc2ccc(Cl)cc2)c1=O [Example 9d, 3-[(4-chlorophenyl)amino]-4-({2-[(2,6-dipyrrolidin-1-ylpyrimidin-4-yl)amino]ethyl}amino)cyclobut-3-ene-1,2-dione maleate]	248 to 250			
O=c1c(NCCNc2cc(N3CCCC3)nc(N3CCCC3)n2)c(Nc2ccc(O)cc2)c1=O [Example 27, 3-({2-[(2,6-dipyrrolidin-1-ylpyrimidin-4-yl)amino]ethyl}amino)-4-[(4-hydroxyphenyl)amino]cyclobut-3-ene-1,2-dione]	> 260		≤ 15	
COc1c(NCCN(C)CCNc2cc(N3CCCC3)nc(N3CCCC3)n2)c(=O)c1=O [Example 6]	132 to 134		≤ 5	
O=c1c(NCCNc2cc(N3CCCC3)nc(N3CCCC3)n2)c(N2CCOCC2)c1=O [Example 4, 3-({2-[(2,6-dipyrrolidin-1-ylpyrimidin-4-yl)amino]ethyl}amino)-4-morpholin-4-ylcyclobut-3-ene-1,2-dione]	242 to 244		≤ 5	
CC(=O)Nc1ccc(Nc2c(NCCNc3cc(N4CCCC4)nc(N4CCCC4)n3)c(=O)c2=O)cc1 [Example 13, N-(4-{[2-({2-[(2,6-dipyrrolidin-1-ylpyrimidin-4-yl)amino]ethyl}amino)-3,4-dioxocyclobut-1-en-1-yl]amino}phenyl)acetamide]	263 to 265		≤ 5	
Cl.NCCc1ccc(Nc2c(NCCNc3cc(N4CCCC4)nc(N4CCCC4)n3)c(=O)c2=O)cc1 [Example 30, 3-{[4-(2-aminoethyl)phenyl]amino}-4-({2-[(2,6-dipyrrolidin-1-ylpyrimidin-4-yl)amino]ethyl}amino)cyclobut-3-ene-1,2-dione hydrochloride]	250 to 252		≤ 5	
O=S(=O)(O)O.O=c1c(NCCNc2cc(N3CCCC3)nc(N3CCCC3)n2)c(Nc2ccc(Cl)cc2)c1=O [Example 9b, 3-[(4-chlorophenyl)amino]-4-({2-[(2,6-dipyrrolidin-1-ylpyrimidin-4-yl)amino]ethyl}amino)cyclobut-3-ene-1,2-dione sulfate]	263 to 266			

Other lines, results leading:

melting point [°C]	IC50 [1] [µM]	IC50 [2] [µM]	IC50 [3] [µM]	SMILES
224 to 226	≤ 10	≤ 5		Cl.NCc1ccc(Nc2c(NCCNc3cc(N4CCCC4)nc(N4CCCC4)n3)c(=O)c2=O)cc1 [Example 28, 3-{[4-(aminomethyl)phenyl]amino}-4-({2-[(2,6-dipyrrolidin-1-ylpyrimidin-4-yl)amino]ethyl}amino)cyclobut-3-ene-1,2-dione hydrochloride]
> 250		≤ 5		O=c1c(NCCNc2cc(N3CCCC3)nc(N3CCCC3)n2)c(N2CCCCC2)c1=O [Example 2, 3-({2-[(2,6-dipyrrolidin-1-ylpyrimidin-4-yl)amino]ethyl}amino)-4-piperidin-1-ylcyclobut-3-ene-1,2-dione]
116 to 118		≤ 5		COc1c(NCCNc2cc(N3CCCC3)nc(N3CCCC3)n2)c(=O)c1=O [Example 1, 3-({2-[(2,6-dipyrrolidin-1-ylpyrimidin-4-yl)amino]ethyl}amino)-4-methoxycyclobut-3-ene-1,2-dione]
246 to 248		≤ 1		CCCCNc1c(NCCNc2cc(N3CCCC3)nc(N3CCCC3)n2)c(=O)c1=O [Example 3, 3-(butylamino)-4-({2-[(2,6-dipyrrolidin-1-ylpyrimidin-4-yl)amino]ethyl}amino)cyclobut-3-ene-1,2-dione]
		≤ 5		O=c1c(NCCNc2cc(N3CCCC3)nc(N3CCCC3)n2)c(Nc2cccc(-c3nnn[nH]3)c2)c1=O [Example 12, 3-({2-[(2,6-dipyrrolidin-1-ylpyrimidin-4-yl)amino]ethyl}amino)-4-{[3-(1H-tetrazol-5-yl)phenyl]amino}cyclobut-3-ene-1,2-dione]
		≤ 5		CN(CCNc1cc(N2CCCC2)nc(N2CCCC2)n1)CCNc1c(O)c(=O)c1=O [Example 7, 3-({2-[{2-[(2,6-dipyrrolidin-1-ylpyrimidin-4-yl)amino]ethyl}(methyl)amino]ethyl}amino)-4-hydroxycyclobut-3-ene-1,2-dione]
		≤ 5	≤ 10	O=c1c(NCCNc2cc(N3CCCC3)nc(N3CCCC3)n2)c(Nc2ccc(-c3ccccc3)cc2)c1=O [Example 11, 3-(biphenyl-4-ylamino)-4-({2-[(2,6-dipyrrolidin-1-ylpyrimidin-4-yl)amino]ethyl}amino)cyclobut-3-ene-1,2-dione]
154 to 156	≤ 10	≤ 5		COc1cc(Nc2c(NCCNc3cc(N4CCCC4)nc(N4CCCC4)n3)c(=O)c2=O)cc(OC)c1OC [Example 14, 3-({2-[(2,6-dipyrrolidin-1-ylpyrimidin-4-yl)amino]ethyl}amino)-4-[(3,4,5-trimethoxyphenyl)amino]cyclobut-3-ene-1,2-dione]
> 260	≤ 10	≤ 5		CNCc1ccc(Nc2c(NCCNc3cc(N4CCCC4)nc(N4CCCC4)n3)c(=O)c2=O)cc1.Cl [Example 22, 3-({2-[(2,6-dipyrrolidin-1-ylpyrimidin-4-yl)amino]ethyl}amino)-4-({4-[(methylamino)methyl]phenyl}amino)cyclobut-3-ene-1,2-dione hydrochloride]
251 to 253		≤ 1		O=c1c(NCCNc2cc(N3CCCC3)nc(N3CCCC3)n2)c(Nc2ccc(Cl)cc2)c1=O [Example 9, 3-[(4-chlorophenyl)amino]-4-({2-[(2,6-dipyrrolidin-1-ylpyrimidin-4-yl)amino]ethyl}amino)cyclobut-3-ene-1,2-dione]
179 to 181	≤ 10	≤ 1		O=c1c(NCCNc2cc(N3CCCC3)nc(N3CCCC3)n2)c(Nc2ccccc2Cl)c1=O [Example 16, 3-[(2-chlorophenyl)amino]-4-({2-[(2,6-dipyrrolidin-1-ylpyrimidin-4-yl)amino]ethyl}amino)cyclobut-3-ene-1,2-dione]
	≤ 10	≤ 1		O=c1c(NCCNc2cc(N3CCCC3)nc(N3CCCC3)n2)c(Nc2ccccc2)c1=O [Example 35, 3-anilino-4-({2-[(2,6-dipyrrolidin-1-ylpyrimidin-4-yl)amino]ethyl}amino)cyclobut-3-ene-1,2-dione]
